What was measured:
[1] = molecular target: human aldose reductase (hALR2) (Homo sapiens, UniProt P15121); assay: inhibition of human aldose reductase (hALR2) activity, methods similar to Butera et al.; format: biochemical; conditions: concentration to inhibit activity by 50%, read-out: hAR-#1 (aldose)
Protocol: Representative compounds of the invention are tested for their potency, selectivity and efficacy as inhibitors of human aldose reductase. […] Using this assay, the concentrations required to inhibit human aldose reductase (hALR2) activity by 50% (IC50) are determined.

SMILES	melting point	IC50 [1]
CCCc1nc(CCC)c(Cc2nc3c(F)c(F)cc(F)c3s2)cc1CC(=O)O.Cl [Example 7, [2,6-Dipropyl-5-(4,5,7-trifluoro-benzothiazol-2-ylmethyl)-pyridin-3-yl]acetic acid hydrochloride]	98 to 100 °C	7 nM
Cl.O=C(O)Cc1cc(Cc2nc3c(F)c(F)cc(F)c3s2)c(-c2ccccc2)nc1-c1ccccc1 [Example 6, [2,6-Diphenyl-5-(4,5,7-trifluoro-benzothiazol-2-ylmethyl)-pyridin-3-yl]acetic acid hydrochloride]	84 to 86 °C	11 nM
CCc1nc(CC)c(Cc2nc3c(F)c(F)cc(F)c3s2)cc1CC(=O)O.Cl [Example 5, [2,6-Diethyl-5-(4,5,7-trifluoro-benzothiazol-2-ylmethyl)-pyridin-3-yl]acetic acid hydrochloride]	143 to 145 °C	7 nM
O=C(O)Cc1ccsc1Cc1nc2c(F)c(F)cc(F)c2s1 [Example 23, [2-(4,5,7-trifluoro-benzothiazol-2-ylmethyl)-thiophen-3-yl]-acetic acid]	142 to 144 °C	24 nM
O=C(O)Cc1cc(Cc2nc3c(F)c(F)cc(F)c3s2)cs1 [Example 21, [4-(4,5,7-Trifluoro-benzothiazol-2-ylmethyl)-thiophen-2-yl]-acetic acid]	144 to 146 °C	9 nM
